Assays:
Assay type in all cases: biochemical
Fyn human = Fyn human (Homo sapiens, UniProt P06241); assay: Kinase profiling, glass-fiber filter technology: Fyn; conditions: test concentration of 10^−6 M; read-out: Fyn inhibition score
Description: (§1) The in vitro inhibition of a panel of kinases was assessed using the glass-fiber filter technology as described by Davies, S. P. et al., Biochem J. (2000), 351; p. 95-105.
(§2) In the glass-fiber filter technology the activity of the kinase of interest is measured using an appropriate substrate that is incubated with the aforementioned kinase protein in the presence of (^33P) radiolabeled ATP. (^33P) Phosporylation of the substrate is subsequently measured as radioactivity bound on a glassfiber-filter.
(§3) All kinases are pre-diluted to a 10× working concentration prior to addition into the assay. The composition of the dilution buffer for each kinase is detailed below.
(§4) All substrates are dissolved and diluted to working stocks in de-ionised water.
(§5) In a final reaction volume of 25 μl, Fyn human (5-10 mU) is incubated with 50 mM Tris pH 7.5, 0.1 mM EGTA, 0.1 mM Na3VO4, 250 μM KVEKIGEGTYGVVYK (Cdc2 peptide), 10 mM MgAcetate and [γ-^33P-ATP] (specific activity approx. 500 cpm/pmol, concentration as required). The reaction is initiated by the addition of the MgATP mix. After incubation for 40 minutes at room temperature, the reaction is stopped by the addition of 5 μl of a 3% phosphoric acid solution. 10 μl of the reaction is then spotted onto a P30 filtermat and washed three times for 5 minutes in 75 mM phosphoric acid and once in methanol prior to drying and scintillation counting.

EGFR (h) = EGFR (h) (Homo sapiens, UniProt P00533); assay: Kinase profiling, glass-fiber filter technology: EGFR; conditions: test concentration of 10^−6 M; read-out: EGFR inhibition score
Chain of EGFR (h) (P00533 25-1210): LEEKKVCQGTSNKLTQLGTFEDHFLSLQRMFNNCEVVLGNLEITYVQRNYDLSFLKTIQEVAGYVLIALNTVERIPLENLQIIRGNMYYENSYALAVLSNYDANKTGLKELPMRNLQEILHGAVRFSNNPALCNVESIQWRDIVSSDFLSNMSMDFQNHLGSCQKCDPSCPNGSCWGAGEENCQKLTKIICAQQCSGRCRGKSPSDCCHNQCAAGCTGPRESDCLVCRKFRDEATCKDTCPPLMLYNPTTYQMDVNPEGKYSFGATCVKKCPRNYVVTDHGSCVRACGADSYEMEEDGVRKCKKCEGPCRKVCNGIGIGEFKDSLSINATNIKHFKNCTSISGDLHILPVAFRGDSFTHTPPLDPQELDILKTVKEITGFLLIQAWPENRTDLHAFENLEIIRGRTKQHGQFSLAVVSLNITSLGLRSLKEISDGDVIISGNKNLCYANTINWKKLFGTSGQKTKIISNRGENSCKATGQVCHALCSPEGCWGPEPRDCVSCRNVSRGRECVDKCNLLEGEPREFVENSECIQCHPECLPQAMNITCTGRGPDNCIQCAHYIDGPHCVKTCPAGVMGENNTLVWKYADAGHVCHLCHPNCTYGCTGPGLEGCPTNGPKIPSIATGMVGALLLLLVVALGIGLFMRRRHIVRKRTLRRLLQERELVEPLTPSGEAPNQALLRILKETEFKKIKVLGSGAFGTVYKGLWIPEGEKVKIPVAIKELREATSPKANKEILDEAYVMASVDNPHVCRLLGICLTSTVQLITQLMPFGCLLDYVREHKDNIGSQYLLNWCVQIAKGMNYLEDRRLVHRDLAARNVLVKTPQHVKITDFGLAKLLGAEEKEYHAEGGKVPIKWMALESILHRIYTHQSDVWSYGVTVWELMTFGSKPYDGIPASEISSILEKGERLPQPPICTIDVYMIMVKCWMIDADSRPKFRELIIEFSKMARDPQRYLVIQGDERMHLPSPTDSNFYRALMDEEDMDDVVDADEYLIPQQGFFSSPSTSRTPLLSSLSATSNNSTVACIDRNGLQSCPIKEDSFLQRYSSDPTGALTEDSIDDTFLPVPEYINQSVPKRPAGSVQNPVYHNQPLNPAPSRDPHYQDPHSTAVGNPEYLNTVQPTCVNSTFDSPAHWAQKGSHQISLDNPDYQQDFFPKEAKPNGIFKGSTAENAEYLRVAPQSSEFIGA
Description: as §1, §2, §3, §4
as §5, with “μl, EGFR (h)” for “μl, Fyn human”, “with 8” for “with 50”, “mM MOPS” for “mM Tris”, “pH 7.0, 0.2 mM EDTA, 10 mM MnCl2,” for “pH 7.5,”, “0.1 mg/ml poly(Glu, Tyr) 4:1,” for “0.1 mM EGTA, 0.1 mM Na3VO4, 250 μM KVEKIGEGTYGVVYK (Cdc2 peptide),”, “a Filtermat A” for “a P30 filtermat”

Lyn (h) = Lyn (h) (Homo sapiens, UniProt P07948); assay: Kinase profiling, glass-fiber filter technology: Lyn; conditions: test concentration of 10^−6 M; read-out: Lyn inhibition score
Chain of Lyn (h) (P07948 whole entry): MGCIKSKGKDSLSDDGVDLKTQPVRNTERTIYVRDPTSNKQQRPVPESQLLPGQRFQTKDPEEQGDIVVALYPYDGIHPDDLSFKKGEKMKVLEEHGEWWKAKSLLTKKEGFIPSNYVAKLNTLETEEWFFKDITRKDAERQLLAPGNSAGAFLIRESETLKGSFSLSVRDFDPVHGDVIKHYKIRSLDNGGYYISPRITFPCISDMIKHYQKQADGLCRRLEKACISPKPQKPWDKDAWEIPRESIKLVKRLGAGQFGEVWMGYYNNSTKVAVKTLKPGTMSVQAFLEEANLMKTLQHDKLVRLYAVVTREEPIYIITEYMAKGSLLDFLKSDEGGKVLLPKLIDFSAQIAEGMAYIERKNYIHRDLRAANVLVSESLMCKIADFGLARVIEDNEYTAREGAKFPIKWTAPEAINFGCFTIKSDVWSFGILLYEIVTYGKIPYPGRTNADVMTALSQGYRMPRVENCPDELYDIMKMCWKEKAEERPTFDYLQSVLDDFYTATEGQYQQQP
Description: as §1, §2, §3, §4
as §5, with “Lyn (h)” for “Fyn human”, “0.1% β-mercaptoethanol, 0.1 mg/ml poly(Glu, Tyr) 4:1,” for “250 μM KVEKIGEGTYGVVYK (Cdc2 peptide),”, “Filtermat A” for “P30 filtermat”

Bmx (h) = molecular target: T1, Bmx (h) (Homo sapiens, UniProt P51813); assay: Kinase profiling, glass-fiber filter technology: Bmx; conditions: test concentration of 10^−6 M; read-out: Bmx inhibition score
T1 sequence (P51813 1-675): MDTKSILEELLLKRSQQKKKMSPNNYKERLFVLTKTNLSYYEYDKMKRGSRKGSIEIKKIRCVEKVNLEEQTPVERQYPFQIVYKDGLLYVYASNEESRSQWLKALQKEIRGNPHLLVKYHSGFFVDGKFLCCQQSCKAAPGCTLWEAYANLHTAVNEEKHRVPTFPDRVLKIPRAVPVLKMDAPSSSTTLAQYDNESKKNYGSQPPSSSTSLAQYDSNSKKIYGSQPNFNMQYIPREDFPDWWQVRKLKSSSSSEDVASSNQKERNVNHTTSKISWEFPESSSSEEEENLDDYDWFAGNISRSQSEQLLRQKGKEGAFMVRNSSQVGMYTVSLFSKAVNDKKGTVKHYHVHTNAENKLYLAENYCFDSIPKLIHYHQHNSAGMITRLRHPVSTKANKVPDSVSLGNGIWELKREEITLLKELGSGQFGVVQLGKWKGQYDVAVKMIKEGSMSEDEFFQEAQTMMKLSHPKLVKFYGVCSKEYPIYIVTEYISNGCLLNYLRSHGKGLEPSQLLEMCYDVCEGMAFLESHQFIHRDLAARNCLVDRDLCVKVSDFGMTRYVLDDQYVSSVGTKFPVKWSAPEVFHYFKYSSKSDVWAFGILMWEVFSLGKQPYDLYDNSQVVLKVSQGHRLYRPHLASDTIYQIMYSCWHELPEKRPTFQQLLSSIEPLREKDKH
Description: as §1, §2, §3, §4
(§6) In a final reaction volume of 25 μl, Bmx (h) (5-10 mU) is incubated with 8 mM MOPS pH 7.0, 0.2 mM EDTA, 0.1 mg/ml poly(Glu, Tyr) 4:1, 10 mM MgAcetate and [γ-33P-ATP] (specific activity approx. 500 cpm/pmol, concentration as required). The reaction is initiated by the addition of the MgATP mix. After incubation for 40 minutes at room temperature, the reaction is stopped by the addition of 5 μl of a 3% phosphoric acid solution. 10 μl of the reaction is then spotted onto a Filtermat A and washed three times for 5 minutes in 75 mM phosphoric acid and once in methanol prior to drying and scintillation counting.

Blk (m) = Blk (m) (Mus musculus, UniProt P16277); assay: Kinase profiling, glass-fiber filter technology: Blk; conditions: test concentration of 10^−6 M; read-out: Blkl inhibition score
Chain of Blk (m) (P16277 whole entry): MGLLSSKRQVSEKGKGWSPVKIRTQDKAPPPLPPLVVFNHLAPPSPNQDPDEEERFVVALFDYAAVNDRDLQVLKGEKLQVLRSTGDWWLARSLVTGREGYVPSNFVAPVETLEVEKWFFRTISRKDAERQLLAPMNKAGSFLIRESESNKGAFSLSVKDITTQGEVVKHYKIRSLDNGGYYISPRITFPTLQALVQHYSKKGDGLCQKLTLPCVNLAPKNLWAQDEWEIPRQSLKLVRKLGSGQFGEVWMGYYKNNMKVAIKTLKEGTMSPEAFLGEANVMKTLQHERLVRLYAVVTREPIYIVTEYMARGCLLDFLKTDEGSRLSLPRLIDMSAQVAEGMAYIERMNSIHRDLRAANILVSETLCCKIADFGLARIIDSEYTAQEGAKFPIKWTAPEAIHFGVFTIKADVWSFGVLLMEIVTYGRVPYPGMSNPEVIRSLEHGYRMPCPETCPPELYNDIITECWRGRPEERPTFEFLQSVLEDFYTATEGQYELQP
Description: as §1, §2, §3, §4
as §6, with “Blk (m)” for “Bmx (h)”, “50” for “8”, “Tris” for “MOPS”, “7.5, 0.1” for “7.0, 0.2”, “EGTA, 0.1 mM Na3VO4, 0.1% β-mercaptoethanol,” for “EDTA,”

Chain of Fyn human (P06241 whole entry): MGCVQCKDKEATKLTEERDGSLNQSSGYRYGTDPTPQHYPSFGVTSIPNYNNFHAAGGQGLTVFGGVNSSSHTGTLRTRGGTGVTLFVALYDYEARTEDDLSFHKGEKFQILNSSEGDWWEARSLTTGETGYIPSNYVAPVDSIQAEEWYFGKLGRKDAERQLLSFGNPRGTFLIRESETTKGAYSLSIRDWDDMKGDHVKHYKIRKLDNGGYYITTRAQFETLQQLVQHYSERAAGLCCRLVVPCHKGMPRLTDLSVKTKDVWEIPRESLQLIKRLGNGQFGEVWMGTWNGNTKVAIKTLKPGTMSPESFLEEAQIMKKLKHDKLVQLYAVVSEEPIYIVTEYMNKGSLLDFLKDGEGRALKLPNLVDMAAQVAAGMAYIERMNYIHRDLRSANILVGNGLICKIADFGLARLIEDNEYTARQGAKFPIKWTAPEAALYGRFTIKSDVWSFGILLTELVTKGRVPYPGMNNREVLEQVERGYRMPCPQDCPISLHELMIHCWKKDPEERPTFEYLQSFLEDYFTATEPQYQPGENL

Compound	inhibition at 1 µM (Fyn human)	inhibition at 1 µM (EGFR (h))	inhibition at 1 µM (Lyn (h))	inhibition at 1 µM (Bmx (h))	inhibition at 1 µM (Blk (m))
CC(=O)OCCN(C)CCCOc1cc2ncnc3c2cc1OCCCNC(=O)[C@H](C)N(C)Cc1cc(F)c(Cl)cc1N3 [Compound 2]	> 80%	> 80%		30 to 60%	> 80%
CC(=O)N(CCO)CCCOc1cc2ncnc3c2cc1OCCCNC(=O)[C@H](C)N(C)Cc1cc(F)c(Cl)cc1N3 [Compound 5]	60 to 80%	> 80%	> 80%	30 to 60%	> 80%
C[C@H]1C(=O)NCCCOc2cc3c(ncnc3cc2OCCCN2CCN(C(=O)OC(C)(C)C)CC2)Nc2cc(Cl)c(F)cc2CN1C [Int. 16]	> 80%	> 80%	> 80%	30 to 60%	> 80%
CN1CCCCCOc2cc3c(ncnc3cc2OC[C@H](O)CNCCOCCO)Nc2cc(Cl)c(F)cc2C1 [Compound 17]	> 80%	> 80%	> 80%	60 to 80%	
COc1cc2ncnc3c2cc1OCCCN(CCCN1CCOCC1)C(=O)[C@H](CC(C)C)NC(=O)Cc1ccc(Br)cc1N3 [Int. 25]	30 to 60%	> 80%	60 to 80%		30 to 60%
COc1cc2ncnc3c2cc1OCCCN(CCN1CCOCC1)C(=O)CNC(=O)Cc1ccc(Cl)cc1N3 [Compound 15]	30 to 60%	> 80%	60 to 80%		30 to 60%
CC(=O)NCCNCCCOc1cc2ncnc3c2cc1OCCCNC(=O)[C@H](C)N(C)Cc1cc(F)c(Cl)cc1N3 [Compound 4]	60 to 80%	> 80%		30 to 60%	> 80%
CC(=O)NCCN1CCN(CCCOc2cc3ncnc4c3cc2OCCCNC(=O)[C@H](C)N(C)Cc2cc(F)c(Cl)cc2N4)CC1 [Compound 6]	> 80%	> 80%	> 80%	30 to 60%	

Further lines, results first:

inhibition at 1 µM (Fyn human)	inhibition at 1 µM (EGFR (h))	inhibition at 1 µM (Lyn (h))	inhibition at 1 µM (Bmx (h))	inhibition at 1 µM (Blk (m))	Compound
> 80%	> 80%	> 80%	30 to 60%		CN1CCCCCOc2cc3c(ncnc3cc2OCCCNCCS(C)(=O)=O)Nc2cc(Cl)c(F)cc2C1 [Compound 18]
	> 80%	> 80%	30 to 60%	> 80%	CN1CCCCCOc2cc3c(ncnc3cc2OCCCNCCS(C)(=O)=O)Nc2cc(Br)ccc2C1 [Compound 14]
> 80%	> 80%	> 80%		60 to 80%	COCCOCCOc1cc2ncnc3c2cc1OCCCCCN(C)Cc1ccc(Br)cc1N3 [Int. 43]
> 80%	> 80%	> 80%	30 to 60%	> 80%	CN1CCCCCOc2cc3c(ncnc3cc2OC[C@@H](O)CN2CCS(=O)(=O)CC2)Nc2cc(Br)ccc2C1 [Compound 12]
	> 80%	> 80%	60 to 80%	> 80%	CC(=O)NCCNCCCOc1cc2ncnc3c2cc1OCCCCCN(C)Cc1ccc(Br)cc1N3 [Compound 13]
> 80%	> 80%		60 to 80%	> 80%	CN1CCCCCOc2cc3c(ncnc3cc2OCCCN2CCS(=O)(=O)CC2)Nc2cc(Cl)c(F)cc2C1 [Compound 19]
		> 80%	60 to 80%	> 80%	C#Cc1ccc2c(c1)Nc1ncnc3cc(OCCCNCCS(C)(=O)=O)c(cc13)OCCCCCN(C)C2 [Compound 20]
60 to 80%	> 80%	30 to 60%	10 to 30%	30 to 60%	CN1CCCCCOc2cc3c(ncnc3cc2OCCCNC(=O)OC(C)(C)C)Nc2cc(Br)ccc2C1 [Compound 11]

Reference: US9688691B2, “Macrocyclic quinazole derivatives and their use as MTKI” (Janssen Pharmaceutica NV, priority 2004, dated 2017)
